Molecules are shown by their SMILES.

A word on the IC50: it is the concentration that inhibits the measured activity by half.

GCN2, sequence (Q9P2K8 whole entry): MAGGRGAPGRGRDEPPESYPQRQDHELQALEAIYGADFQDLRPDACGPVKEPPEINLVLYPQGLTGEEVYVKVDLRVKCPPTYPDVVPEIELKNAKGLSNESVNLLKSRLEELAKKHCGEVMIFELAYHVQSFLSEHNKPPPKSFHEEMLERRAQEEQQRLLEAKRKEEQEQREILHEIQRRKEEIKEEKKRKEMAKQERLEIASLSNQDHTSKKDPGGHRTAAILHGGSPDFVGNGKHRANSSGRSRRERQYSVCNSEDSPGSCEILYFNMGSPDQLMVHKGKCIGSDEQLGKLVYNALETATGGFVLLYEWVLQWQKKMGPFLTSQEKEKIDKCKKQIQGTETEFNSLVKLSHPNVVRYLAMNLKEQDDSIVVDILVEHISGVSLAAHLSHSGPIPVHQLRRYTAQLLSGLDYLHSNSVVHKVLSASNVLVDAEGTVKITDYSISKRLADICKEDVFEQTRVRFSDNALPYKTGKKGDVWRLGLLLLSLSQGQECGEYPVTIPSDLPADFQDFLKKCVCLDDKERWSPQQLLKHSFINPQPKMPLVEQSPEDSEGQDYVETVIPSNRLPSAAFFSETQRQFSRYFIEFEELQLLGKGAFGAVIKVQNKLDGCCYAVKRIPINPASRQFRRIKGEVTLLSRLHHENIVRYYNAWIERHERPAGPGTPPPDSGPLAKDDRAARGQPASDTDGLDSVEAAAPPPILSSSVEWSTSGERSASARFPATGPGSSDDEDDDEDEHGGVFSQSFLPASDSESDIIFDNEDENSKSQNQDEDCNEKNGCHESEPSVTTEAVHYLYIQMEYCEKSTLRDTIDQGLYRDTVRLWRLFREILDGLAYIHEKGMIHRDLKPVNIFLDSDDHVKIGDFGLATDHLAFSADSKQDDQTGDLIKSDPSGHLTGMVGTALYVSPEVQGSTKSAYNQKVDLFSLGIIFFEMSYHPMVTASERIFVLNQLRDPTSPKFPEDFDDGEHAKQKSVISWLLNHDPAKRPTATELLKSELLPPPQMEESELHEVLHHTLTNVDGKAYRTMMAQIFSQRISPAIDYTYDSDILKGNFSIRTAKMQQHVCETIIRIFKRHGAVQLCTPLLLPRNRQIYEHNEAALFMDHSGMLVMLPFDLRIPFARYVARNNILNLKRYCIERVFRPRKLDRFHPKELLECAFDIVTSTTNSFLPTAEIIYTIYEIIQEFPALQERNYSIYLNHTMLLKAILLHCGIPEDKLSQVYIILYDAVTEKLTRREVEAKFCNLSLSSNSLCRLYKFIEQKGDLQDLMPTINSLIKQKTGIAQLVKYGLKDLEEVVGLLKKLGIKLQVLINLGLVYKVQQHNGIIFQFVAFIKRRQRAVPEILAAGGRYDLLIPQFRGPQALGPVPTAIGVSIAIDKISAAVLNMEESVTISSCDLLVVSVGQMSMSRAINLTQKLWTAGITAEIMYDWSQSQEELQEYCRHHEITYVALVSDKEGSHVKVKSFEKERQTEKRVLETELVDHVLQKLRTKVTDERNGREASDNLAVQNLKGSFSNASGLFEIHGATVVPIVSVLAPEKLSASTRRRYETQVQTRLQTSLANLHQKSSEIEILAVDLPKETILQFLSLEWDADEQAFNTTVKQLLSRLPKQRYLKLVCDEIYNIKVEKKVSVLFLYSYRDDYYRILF

For this experiment, the target named is GCN2 (Homo sapiens (Human), UniProt Q9P2K8). Briefly: GCN2 Biochemical Assay (TR-FRET, GFP-eIF2S1 substrate phosphorylation). The note with it: read-out: IC50 (GCN2 Inhibitory Activity). Put shortly:
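TR-FRET readout (Ex 340, Em 490/520 nm) after 2–3 h with Tb-labelled phospho-eIF2S1 antibody in stop mix, following a 70 min room-temperature kinase step. Reaction: in-house GCN2, GFP-eIF2S1, ATP, tRNA in Tris pH 7.5 (2× stocks 1.6 nM, 50 nM, 0.2 mM); compounds tested at 10 concentrations, with a phospho-substrate artifact counter-plate.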
`CCNc1nc(O[C@H]2CCN(CC(=O)Nc3cccc4c(-c5nc(Nc6cc(C)n(C)n6)ncc5C)c[nH]c34)C2)ncc1F` [Example 178, (S)-N-(3-(2-((1,5-dimethyl-1H-pyrazol-3-yl)amino)-5-methylpyrimidin-4-yl)-1H-indol-7-yl)-2-(3-((4-(ethylamino)-5-fluoropyrimidin-2-yl)oxy)pyrrolidin-1-yl)acetamide]: the IC50 was less than 10 nM.
With `Cc1cnc(Nc2cc(C)n(C)n2)nc1-c1c[nH]c2c(N3Cc4c(-c5ccccc5)ccc(I)c4C3=O)cccc12` [Example 492, 2-(3-(2-((1,5-dimethyl-1H-pyrazol-3-yl)amino)-5-methylpyrimidin-4-yl)-1H-indol-7-yl)-7-iodo-4-phenylisoindolin-1-one], the IC50 lay within 100 to 1000 nM.
Next, `Cc1cnc(Nc2cc(C)n(C)n2)nc1-c1c[nH]c2c(N3Cc4c(cccc4-c4cnn(C)c4)C3=O)cccc12` [Example 389, 2-(3-(2-((1,5-dimethyl-1H-pyrazol-3-yl)amino)-5-methylpyrimidin-4-yl)-1H-indol-7-yl)-4-(i-methyl-1H-pyrazol-4-yl)isoindolin-1-one]: less than 10 nM; `Cc1cnc(Nc2cc3n(n2)CCC3)nc1-c1c[nH]c2c(NC(=O)CN3CC[C@H](Oc4ccnc(NC5CC5)n4)C3)cccc12` [Example 16, (S)-2-(3-((2-(cyclopropylamino)pyrimidin-4-yl)oxy)pyrrolidin-1-yl)-N-(3-(2-((5,6-dihydro-4H-pyrrolo[1,2-b]pyrazol-2-yl)amino)-5-methylpyrimidin-4-yl)-1H-indol-7-yl)acetamide]: less than 10 nM.
Regarding `Cc1cnc(Nc2cc(C)n(C)n2)nc1-c1c[nH]c2c(NC(=O)CN3CC[C@H](Oc4nc(NC5CCCCC5)ncc4F)C3)cccc12` [Example 228, (S)-2-(3-((2-(cyclohexylamino)-5-fluoropyrimidin-4-yl)oxy)pyrrolidin-1-yl)-N-(3-(2-((1,5-dimethyl-1H-pyrazol-3-yl)amino)-5-methylpyrimidin-4-yl)-1H-indol-7-yl)acetamide], the IC50 was 10 to 100 nM.
`Cc1cnc(Nc2cc(C)n(C)n2)nc1-c1c[nH]c2c(NC(=O)CN3CC[C@H](Oc4ccc(CN5CCN(C)CC5)cc4)C3)cccc12` [Example 103, (S)-N-(3-(2-((1,5-dimethyl-1H-pyrazol-3-yl)amino)-5-methylpyrimidin-4-yl)-1H-indol-7-yl)-2-(3-(4-((4-methylpiperazin-1-yl)methyl)phenoxy)pyrrolidin-1-yl)acetamide]: the IC50 is 10 to 100 nM.
In the case of `COc1ccc2c(-c3nc(Nc4cc(C)n(C)n4)ncc3C)c[nH]c2c1NC(=O)CN1CC[C@H](Oc2ccnc(NCC(F)(F)F)n2)C1` [Example 6, (S)-N-(3-(2-((1,5-dimethyl-1H-pyrazol-3-yl)amino)-5-methylpyrimidin-4-yl)-6-methoxy-1H-indol-7-yl)-2-(3-((2-((2,2,2-trifluoroethyl)amino)pyrimidin-4-yl)oxy)pyrrolidin-1-yl)acetamide], the half-maximal inhibitory concentration (IC50) lay within 10 to 100 nM.
For `Cc1cc(C(=O)Nc2cccc3c2CN(c2cccc4c(-c5nc(Nc6cc(C)n(C)n6)ncc5C)c[nH]c24)C3=O)no1` [Example 325, N-(2-(3-(2-((1,5-dimethyl-1H-pyrazol-3-yl)amino)-5-methylpyrimidin-4-yl)-1H-indol-7-yl)-1-oxoisoindolin-4-yl)-5-methylisoxazole-3-carboxamide], the IC50 is 10 to 100 nM.
Take `Cc1cnc(Nc2cc(C)n(C)n2)nc1-c1c[nH]c2c(N3Cc4c(/C=C/C(=O)N(C)C)cccc4C3=O)cccc12` [Example 360, (E)-3-(2-(3-(2-((1,5-dimethyl-1H-pyrazol-3-yl)amino)-5-methylpyrimidin-4-yl)-1H-indol-7-yl)-1-oxoisoindolin-4-yl)-N,N-dimethylacrylamide]: the IC50 is less than 10 nM.
For `CCN(C)c1nc(O[C@H]2CCN(CC(=O)Nc3cccc4c(-c5nc(Nc6cc(C)n(C)n6)ncc5C)c[nH]c34)C2)ncc1F` [Example 182, (S)-N-(3-(2-((1,5-dimethyl-1H-pyrazol-3-yl)amino)-5-methylpyrimidin-4-yl)-1H-indol-7-yl)-2-(3-((4-(ethyl(methyl)amino)-5-fluoropyrimidin-2-yl)oxy)pyrrolidin-1-yl)acetamide], the IC50 is less than 10 nM.
Consider `Cc1cnc(Nc2cc(C)n(C)n2)nc1-c1c[nH]c2c(NC(=O)CN3CC[C@H](Oc4cc(-c5cnn(C)c5)ncn4)C3)cccc12` [Example 249, (S)-N-(3-(2-((1,5-dimethyl-1H-pyrazol-3-yl)amino)-5-methylpyrimidin-4-yl)-1H-indol-7-yl)-2-(3-((6-(1-methyl-1H-pyrazol-4-yl)pyrimidin-4-yl)oxy)pyrrolidin-1-yl)acetamide], for which the IC50 is less than 10 nM.
On to `Cc1cnc(Nc2cc(C)n(C)n2)nc1-c1c[nH]c2c(NC(=O)CN3CC[C@H](Oc4ccnc(NC5CC5)n4)C3=O)cccc12` [Example 60, (S)-2-(3-((2-(cyclopropylamino)pyrimidin-4-yl)oxy)-2-oxopyrrolidin-1-yl)-N-(3-(2-((1,5-dimethyl-1H-pyrazol-3-yl)amino)-5-methylpyrimidin-4-yl)-1H-indol-7-yl)acetamide], for which the IC50 lay in the range of 10 to 100 nM.
As to `CNc1cc(-c2ccc(F)c3c2CN(c2cccc4c(-c5nc(Nc6cc(C)n(C)n6)ncc5C)c[nH]c24)C3=O)ccn1` [Example 482, 2-(3-(2-((1,5-dimethyl-1H-pyrazol-3-yl)amino)-5-methylpyrimidin-4-yl)-1H-indol-7-yl)-7-fluoro-4-(2-(methylamino)pyridin-4-yl)isoindolin-1-one], the IC50 was less than 10 nM.
Next, `Cc1cnc(Nc2cc(C)n(C)n2)nc1-c1c[nH]c2c(N3Cc4ccc(C5=CCNCC5)cc4C3=O)cccc12` [Example 381, 2-(3-(2-((1,5-dimethyl-1H-pyrazol-3-yl)amino)-5-methylpyrimidin-4-yl)-1H-indol-7-yl)-6-(1,2,3,6-tetrahydropyridin-4-yl)isoindolin-1-one]: less than 10 nM; `Cc1cnc(Nc2cc(C)n(C)n2)nc1-c1c[nH]c2c(N3Cc4cccc(Cl)c4C3=O)cccc12` [Example 273, 7-chloro-2-(3-(2-((1,5-dimethyl-1H-pyrazol-3-yl)amino)-5-methylpyrimidin-4-yl)-1H-indol-7-yl)isoindolin-1-one]: less than 10 nM.
On to `Cc1cnc(Nc2cc(C)n(C)n2)nc1-c1c[nH]c2c(NC(=O)C(C)N3CCCC3)cccc12` (stereo not drawn) [Example 22, N-(3-(2-((1,5-dimethyl-1H-pyrazol-3-yl)amino)-5-methylpyrimidin-4-yl)-1H-indol-7-yl)-2-(pyrrolidin-1-yl)propanamide], for which the IC50 is 100 to 1000 nM.
For the compound `CCNC(=O)/C(C)=C/c1cccc2c1CN(c1cccc3c(-c4nc(Nc5cc(C)n(C)n5)ncc4C)c[nH]c13)C2=O` [Example 376, (E)-3-(2-(3-(2-((1,5-dimethyl-1H-pyrazol-3-yl)amino)-5-methylpyrimidin-4-yl)-1H-indol-7-yl)-1-oxoisoindolin-4-yl)-N-ethyl-2-methylacrylamide], the IC50 was less than 10 nM.
In the case of `Cc1cnc(Nc2cc(C)n(C)n2)nc1-c1c[nH]c2c(N3Cc4c(cncc4C4=CCNCC4)C3=O)cccc12` [Example 499, 2-(3-(2-((1,5-dimethyl-1H-pyrazol-3-yl)amino)-5-methylpyrimidin-4-yl)-1H-indol-7-yl)-7-(1,2,3,6-tetrahydropyridin-4-yl)-1,2-dihydro-3H-pyrrolo[3,4-c]pyridin-3-one], the IC50 is less than 10 nM.

The record behind these values is patent US20240025884A1 (Dong-A ST Co., Ltd., priority 2022, published 2024).
